How the values were obtained:
[1] = system: SK-MEL-2; test: Cytotoxicity against human SK-MEL-2 cells assessed as growth inhibition at 10 uM after 48 hrs by SRB assay; type: functional; conditions: SK-MEL-2, 48 h, read-out: GI
[2] = system: SF-295; test: Cytotoxicity against human SF295 cells assessed as growth inhibition at 10 uM after 48 hrs by SRB assay; type: functional; conditions: SF-295, 48 h, read-out: GI
[3] = system: SK-MEL-28; test: Cytotoxicity against human SK-MEL-28 cells assessed as growth inhibition at 10 uM after 48 hrs by SRB assay; type: functional; conditions: SK-MEL-28, 48 h, read-out: GI
[4] = system: HL-60(TB); test: Cytotoxicity against human HL-60(TB) cells assessed as growth inhibition at 10 uM after 48 hrs by SRB assay; type: functional; conditions: HL-60, 48 h, read-out: GI
[5] = system: HOP-62; test: Cytotoxicity against human HOP62 cells assessed as growth inhibition at 10 uM after 48 hrs by SRB assay; type: functional; conditions: HOP-62, 48 h, read-out: GI
[6] = Cytotoxicity against human EKVX cells assessed as growth inhibition at 10 uM after 48 hrs by SRB assay; type: functional; conditions: read-out: GI
[7] = system: SNB-75; test: Cytotoxicity against human SNB75 cells assessed as growth inhibition at 10 uM after 48 hrs by SRB assay; type: functional; conditions: SNB-75, 48 h, read-out: GI
[8] = system: SN12C; test: Cytotoxicity against human SN12C cells assessed as growth inhibition at 10 uM after 48 hrs by SRB assay; type: functional; conditions: read-out: GI
[9] = system: HCT-116; test: Cytotoxicity against human HCT116 cells assessed as growth inhibition at 10 uM after 48 hrs by SRB assay; type: functional; conditions: HCT-116, 48 h, read-out: GI
[10] = system: HCC 2998; test: Cytotoxicity against human HCC2998 cells assessed as growth inhibition at 10 uM after 48 hrs by SRB assay; type: functional; conditions: HCC 2998, 48 h, read-out: GI
[11] = system: NCI-H226; test: Cytotoxicity against human NCI-H226 cells assessed as growth inhibition at 10 uM after 48 hrs by SRB assay; type: functional; conditions: NCI-H226, 48 h, read-out: GI
[12] = system: SR; test: Cytotoxicity against human SR cells assessed as growth inhibition at 10 uM after 48 hrs by SRB assay; type: functional; conditions: read-out: GI
[13] = system: HT-29; test: Cytotoxicity against human HT-29 cells assessed as growth inhibition at 10 uM after 48 hrs by SRB assay; type: functional; conditions: HT-29, 48 h, read-out: GI
[14] = system: M14; test: Cytotoxicity against human M14 cells assessed as growth inhibition at 10 uM after 48 hrs by SRB assay; type: functional; conditions: M14, 48 h, read-out: GI
[15] = system: MDA-MB-468; test: Cytotoxicity against human MDA-MB-468 cells assessed as growth inhibition at 10 uM after 48 hrs by SRB assay; type: functional; conditions: MDA-MB-468, 48 h, read-out: GI
[16] = system: CCRF-CEM; test: Cytotoxicity against human CCRF-CEM cells assessed as growth inhibition at 10 uM after 48 hrs by SRB assay; type: functional; conditions: read-out: GI
[17] = system: A549; test: Cytotoxicity against human A549/ATCC cells assessed as growth inhibition at 10 uM after 48 hrs by SRB assay; type: functional; conditions: A549, 48 h, read-out: GI
[18] = system: DU-145; test: Cytotoxicity against human DU145 cells assessed as growth inhibition at 10 uM after 48 hrs by SRB assay; type: functional; conditions: DU-145, 48 h, read-out: GI
[19] = system: IGROV-1; test: Cytotoxicity against human IGROV1 cells assessed as growth inhibition at 10 uM after 48 hrs by SRB assay; type: functional; conditions: IGROV-1, 48 h, read-out: GI
[20] = system: MOLT-4; test: Cytotoxicity against human MOLT4 cells assessed as growth inhibition at 10 uM after 48 hrs by SRB assay; type: functional; conditions: MOLT-4, 48 h, read-out: GI
[21] = Partition coefficient, log P of the compound; type: physicochemical; conditions: octanol/water
[22] = system: MCF7; test: Cytotoxicity against human MCF7 cells after 48 hrs by SRB assay; type: functional; conditions: MCF7, 48 h
[23] = system: PC-3; test: Cytotoxicity against human PC3 cells after 48 hrs by SRB assay; type: functional; conditions: PC-3, 48 h
[24] = molecular target: Tyrosine-protein kinase ZAP-70 (Homo sapiens) (UniProt P43403); test: Inhibition of ZAP-70 kinase (unknown origin) using [33P]-ATP at 10 uM after 20 to 40 mins by scintillation counting analysis
Tyrosine-protein kinase ZAP-70 (Homo sapiens), sequence (P43403 whole entry): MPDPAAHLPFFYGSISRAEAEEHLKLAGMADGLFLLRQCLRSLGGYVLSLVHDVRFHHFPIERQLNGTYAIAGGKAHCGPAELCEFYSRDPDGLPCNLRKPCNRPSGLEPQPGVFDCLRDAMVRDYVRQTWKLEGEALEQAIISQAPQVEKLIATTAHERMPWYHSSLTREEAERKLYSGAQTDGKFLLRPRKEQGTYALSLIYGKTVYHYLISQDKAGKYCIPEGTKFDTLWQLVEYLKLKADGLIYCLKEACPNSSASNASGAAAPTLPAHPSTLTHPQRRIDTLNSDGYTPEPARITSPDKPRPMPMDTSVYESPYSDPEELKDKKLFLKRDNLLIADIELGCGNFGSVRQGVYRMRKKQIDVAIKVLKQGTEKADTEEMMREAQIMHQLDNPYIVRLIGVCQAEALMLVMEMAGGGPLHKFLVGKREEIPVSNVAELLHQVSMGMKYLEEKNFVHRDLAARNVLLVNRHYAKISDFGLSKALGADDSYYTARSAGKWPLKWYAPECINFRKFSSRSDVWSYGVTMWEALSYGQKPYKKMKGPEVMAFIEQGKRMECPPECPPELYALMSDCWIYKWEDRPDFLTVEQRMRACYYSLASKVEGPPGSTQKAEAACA

[25] = molecular target: Proto-oncogene tyrosine-protein kinase Src (Homo sapiens) (UniProt P12931); test: Inhibition of Src kinase (unknown origin) using [33P]-ATP at 10 uM after 20 to 40 mins by scintillation counting analysis
Proto-oncogene tyrosine-protein kinase Src (Homo sapiens), sequence (P12931 2-536 limits assumed): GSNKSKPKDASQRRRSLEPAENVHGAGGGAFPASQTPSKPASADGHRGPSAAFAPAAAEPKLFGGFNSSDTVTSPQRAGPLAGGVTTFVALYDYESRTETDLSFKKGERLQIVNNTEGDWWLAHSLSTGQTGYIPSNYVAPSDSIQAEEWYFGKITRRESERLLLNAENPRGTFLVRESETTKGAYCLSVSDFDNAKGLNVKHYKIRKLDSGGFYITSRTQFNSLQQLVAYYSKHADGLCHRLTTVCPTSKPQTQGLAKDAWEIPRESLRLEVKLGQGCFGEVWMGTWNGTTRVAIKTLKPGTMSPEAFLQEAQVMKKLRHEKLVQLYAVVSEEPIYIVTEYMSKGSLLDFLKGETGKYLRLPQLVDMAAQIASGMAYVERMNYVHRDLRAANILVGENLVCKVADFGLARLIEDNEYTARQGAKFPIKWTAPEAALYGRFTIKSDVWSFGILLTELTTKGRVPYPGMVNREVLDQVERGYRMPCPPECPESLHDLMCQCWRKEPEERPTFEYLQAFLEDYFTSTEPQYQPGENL

[26] = system: MCF7; test: Cell cycle arrest in human MCF7 cells assessed as accumulation at G0 phase at 10 uM after 24 hrs by propidium iodide staining-based FACS analysis (reference value: 1.30 %); type: functional
[27] = system: MDA-MB-468; test: Cytotoxicity against human MDA-MB-468 cells after 48 hrs by SRB assay; type: functional; conditions: MDA-MB-468, 48 h
[28] = system: MCF7; test: Cell cycle arrest in human MCF7 cells assessed as accumulation at S phase at 10 uM after 24 hrs by propidium iodide staining-based FACS analysis (reference value: 36.60 %); type: functional
[29] = system: BT-549; test: Cytotoxicity against human BT549 cells after 48 hrs by SRB assay; type: functional; conditions: BT-549, 48 h, pooled result: one value given for 51 cell lines, strains, targets or settings
[30] = system: MCF7; test: Cell cycle arrest in human MCF7 cells assessed as accumulation at G2/M phase at 10 uM after 24 hrs by propidium iodide staining-based FACS analysis (reference value: 4.80 %); type: functional
[31] = molecular target: Serine/threonine-protein kinase B-raf (Homo sapiens) (UniProt P15056); test: Inhibition of B-Raf kinase (unknown origin) using [33P]-ATP at 10 uM after 20 to 40 mins by scintillation counting analysis
Serine/threonine-protein kinase B-raf (Homo sapiens), sequence (P15056 whole entry): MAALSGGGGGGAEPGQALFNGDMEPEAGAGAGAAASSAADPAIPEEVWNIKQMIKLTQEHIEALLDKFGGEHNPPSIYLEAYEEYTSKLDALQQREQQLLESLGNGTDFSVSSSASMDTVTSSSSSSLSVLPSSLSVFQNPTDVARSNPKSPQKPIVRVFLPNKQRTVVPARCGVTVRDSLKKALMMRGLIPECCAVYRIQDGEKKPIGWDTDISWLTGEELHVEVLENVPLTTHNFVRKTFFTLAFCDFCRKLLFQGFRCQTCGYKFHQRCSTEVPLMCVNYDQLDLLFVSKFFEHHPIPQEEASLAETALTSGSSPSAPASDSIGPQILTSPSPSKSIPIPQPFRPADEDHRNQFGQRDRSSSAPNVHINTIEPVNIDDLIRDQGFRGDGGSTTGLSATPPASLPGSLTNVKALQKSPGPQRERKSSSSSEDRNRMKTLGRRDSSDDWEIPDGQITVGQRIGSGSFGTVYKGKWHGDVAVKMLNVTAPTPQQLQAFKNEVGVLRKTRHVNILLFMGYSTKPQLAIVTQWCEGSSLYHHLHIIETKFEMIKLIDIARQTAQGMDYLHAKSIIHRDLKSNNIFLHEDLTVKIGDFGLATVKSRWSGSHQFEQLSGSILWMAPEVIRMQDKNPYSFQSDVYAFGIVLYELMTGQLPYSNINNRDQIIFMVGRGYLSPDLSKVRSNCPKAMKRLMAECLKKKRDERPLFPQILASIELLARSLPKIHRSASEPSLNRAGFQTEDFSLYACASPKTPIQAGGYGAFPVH

[32] = system: NCI-H23; test: Cytotoxicity against human NCI-H23 cells after 48 hrs by SRB assay; type: functional; conditions: NCI-H23, 48 h
[33] = system: T47D; test: Cytotoxicity against human T47D cells after 48 hrs by SRB assay; type: functional
[34] = system: RPMI-8226; test: Cytotoxicity against human RPMI8226 cells after 48 hrs by SRB assay; type: functional; conditions: RPMI-8226, 48 h
[35] = system: SF-295; test: Cytotoxicity against human SF295 cells after 48 hrs by SRB assay; type: functional; conditions: SF-295, 48 h
[36] = system: MCF7; test: Cell cycle arrest in human MCF7 cells assessed as accumulation at G1 phase at 10 uM after 24 hrs by propidium iodide staining-based FACS analysis (reference value: 58.50 %); type: functional
[37] = read-out: LC50 (the source's name)

Cc1ccc(NC2=NS(=O)(=O)c3ccc(NC(=O)CCC(=O)O)cc32)cc1
inhibition of growth at 10 µM [1]: -6% | inhibition of growth at 10 µM [2]: 1% | inhibition of growth at 10 µM [3]: -2% | inhibition of growth at 10 µM [4]: 9% | inhibition of growth at 10 µM [5]: -5% | inhibition of growth at 10 µM [6]: -4% | inhibition of growth at 10 µM [7]: 21% | inhibition of growth at 10 µM [8]: 6% | inhibition of growth at 10 µM [9]: -6% | inhibition of growth at 10 µM [10]: -4% | inhibition of growth at 10 µM [11]: 13% | inhibition of growth at 10 µM [12]: -5% | inhibition of growth at 10 µM [13]: -3% | inhibition of growth at 10 µM [14]: -2% | inhibition of growth at 10 µM [15]: -6% | inhibition of growth at 10 µM [16]: 2% | inhibition of growth at 10 µM [17]: -7% | inhibition of growth at 10 µM [18]: -11% | inhibition of growth at 10 µM [19]: -12% | inhibition of growth at 10 µM [20]: -3% | logP [21]: 1

COc1ccc(NC(=O)Nc2ccc(NC3=NS(=O)(=O)c4ccccc43)cc2)cc1
inhibition of growth at 10 µM [1]: -4% | inhibition of growth at 10 µM [2]: 18% | inhibition of growth at 10 µM [3]: -4% | inhibition of growth at 10 µM [4]: 10% | inhibition of growth at 10 µM [5]: -12% | inhibition of growth at 10 µM [6]: 2% | inhibition of growth at 10 µM [7]: 1% | inhibition of growth at 10 µM [8]: 5% | inhibition of growth at 10 µM [9]: 5% | inhibition of growth at 10 µM [10]: -3% | inhibition of growth at 10 µM [11]: -3% | inhibition of growth at 10 µM [12]: 11% | inhibition of growth at 10 µM [13]: 17% | inhibition of growth at 10 µM [14]: -8% | inhibition of growth at 10 µM [15]: -7% | inhibition of growth at 10 µM [16]: 14% | inhibition of growth at 10 µM [17]: -10% | inhibition of growth at 10 µM [18]: 3% | inhibition of growth at 10 µM [19]: -6% | inhibition of growth at 10 µM [20]: 11% | logP [21]: 2.99

O=C(Nc1ccccc1)Nc1ccc(OC2=NS(=O)(=O)c3ccccc32)cc1
inhibition of growth at 10 µM [1]: -2% | inhibition of growth at 10 µM [2]: 32% | inhibition of growth at 10 µM [3]: -2% | inhibition of growth at 10 µM [4]: 23% | inhibition of growth at 10 µM [5]: -11% | inhibition of growth at 10 µM [6]: -3% | inhibition of growth at 10 µM [7]: 22% | inhibition of growth at 10 µM [8]: 18% | inhibition of growth at 10 µM [9]: 10% | inhibition of growth at 10 µM [10]: 20% | inhibition of growth at 10 µM [11]: 20% | inhibition of growth at 10 µM [12]: 36% | inhibition of growth at 10 µM [13]: 52% | inhibition of growth at 10 µM [14]: 42% | inhibition of growth at 10 µM [15]: 20% | inhibition of growth at 10 µM [16]: 41% | inhibition of growth at 10 µM [17]: 22% | inhibition of growth at 10 µM [18]: 18% | inhibition of growth at 10 µM [19]: -12% | inhibition of growth at 10 µM [20]: 32% | logP [21]: 2.89

O=C(Nc1ccc(Cl)cc1)Nc1ccc2c(c1)C(Nc1ccc(Cl)cc1Cl)=NS2(=O)=O
inhibition of growth at 10 µM [1]: 50% | GI50 [22]: 3.6 µM | inhibition of growth at 10 µM [2]: 96% | inhibition of growth at 10 µM [3]: 42% | inhibition of growth at 10 µM [4]: 74% | inhibition of growth at 10 µM [5]: 33% | GI50 [23]: 2.82 µM | TGI [23]: > 100 µM | CC50 [23, 37]: > 100 µM | inhibition [24]: 13% | inhibition [25]: 58% | inhibition of growth at 10 µM [6]: 71% | Activity [26]: 1.4% | inhibition of growth at 10 µM [7]: 30% | GI50 [27]: 2.75 µM | TGI [27]: > 100 µM | CC50 [27, 37]: > 100 µM | inhibition of growth at 10 µM [8]: 67% | Activity [28]: 15.2% | inhibition of growth at 10 µM [9]: 91% | inhibition of growth at 10 µM [10]: 72% | GI50 [29]: 5.7 µM | Activity [30]: 6.4% | inhibition of growth at 10 µM [11]: 63% | inhibition [31]: -8% | GI50 [32]: 2.69 µM | TGI [32]: 12.3 µM | CC50 [32, 37]: > 100 µM | GI50 [33]: 2.63 µM | TGI [33]: > 100 µM | CC50 [33, 37]: > 100 µM | inhibition of growth at 10 µM [12]: 60% | GI50 [34]: 2.19 µM | TGI [34]: 15.5 µM | CC50 [34, 37]: > 100 µM | inhibition of growth at 10 µM [13]: 57% | inhibition of growth at 10 µM [14]: 63% | inhibition of growth at 10 µM [15]: 74% | inhibition of growth at 10 µM [16]: 82% | GI50 [35]: 2.88 µM | TGI [35]: > 100 µM | CC50 [35, 37]: > 100 µM | inhibition of growth at 10 µM [17]: 69% | Activity [36]: 78.3% | inhibition of growth at 10 µM [18]: 71% | inhibition of growth at 10 µM [19]: 54% | inhibition of growth at 10 µM [20]: 73% | logP [21]: 4.24
